From ChEMBL document CHEMBL4837183, “Antiproliferative Bufadienolides from the Bulbs of Drimia altissima” (2021)

Experiments:
Assay type in all cases: functional
[1] = tested on: NCI/ADR-RES; experiment: Growth inhibition of human NCI/ADR-RES cells measured after 48 hrs by SRB assay
[2] = tested on: SF-295; experiment: Growth inhibition of human SF-295 cells measured after 48 hrs by SRB assay
[3] = tested on: MDA-MB-468; experiment: Growth inhibition of human MDA-MB-468 cells measured after 48 hrs by SRB assay
[4] = tested on: HOP-92; experiment: Growth inhibition of human HOP-92 cells measured after 48 hrs by SRB assay
[5] = tested on: Malme-3M; experiment: Growth inhibition of human Malme-3M cells measured after 48 hrs by SRB assay
[6] = tested on: MDA-MB-435; experiment: Growth inhibition of human MDA-MB-435 cells measured after 48 hrs by SRB assay
[7] = tested on: SK-MEL-5; experiment: Growth inhibition of human SK-MEL-5 cells measured after 48 hrs by SRB assay
[8] = tested on: KM12; experiment: Growth inhibition of human KM12 cells measured after 48 hrs by SRB assay
[9] = tested on: Hs-578T; experiment: Growth inhibition of human Hs-578T cells measured after 48 hrs by SRB assay
[10] = tested on: SW-620; experiment: Growth inhibition of human SW-620 cells measured after 48 hrs by SRB assay
[11] = tested on: ACHN; experiment: Growth inhibition of human ACHN cells measured after 48 hrs by SRB assay
[12] = tested on: LOX IMVI; experiment: Growth inhibition of human LOX IMVI cells measured after 48 hrs by SRB assay
[13] = tested on: SNB-75; experiment: Growth inhibition of human SNB-75 cells measured after 48 hrs by SRB assay
[14] = tested on: NCI-H23; experiment: Growth inhibition of human NCI-H23 cells measured after 48 hrs by SRB assay
[15] = tested on: MOLT-4; experiment: Growth inhibition of human MOLT-4 cells measured after 48 hrs by SRB assay
[16] = tested on: HOP-62; experiment: Growth inhibition of human HOP-62 cells measured after 48 hrs by SRB assay
[17] = tested on: OVCAR-5; experiment: Growth inhibition of human OVCAR-5 cells measured after 48 hrs by SRB assay
[18] = tested on: MDA-MB-231; experiment: Growth inhibition of human MDA-MB-231 cells measured after 48 hrs by SRB assay
[19] = tested on: BT-549; experiment: Growth inhibition of human BT-549 cells measured after 48 hrs by SRB assay
[20] = tested on: UACC-62; experiment: Growth inhibition of human UACC-62 cells measured after 48 hrs by SRB assay
[21] = tested on: HL-60; experiment: Growth inhibition of human HL-60 cells measured after 48 hrs by SRB assay
[22] = tested on: NCI-H460; experiment: Growth inhibition of human NCI-H460 cells measured after 48 hrs by SRB assay
[23] = tested on: PC-3; experiment: Growth inhibition of human PC-3 cells measured after 48 hrs by SRB assay
[24] = tested on: SF-539; experiment: Growth inhibition of human SF-539 cells measured after 48 hrs by SRB assay
[25] = tested on: HCT-15; experiment: Growth inhibition of human HCT-15 cells measured after 48 hrs by SRB assay
[26] = tested on: K562; experiment: Growth inhibition of human K562 cells measured after 48 hrs by SRB assay
[27] = tested on: DU-145; experiment: Growth inhibition of human DU-145 cells measured after 48 hrs by SRB assay
[28] = tested on: HCT-116; experiment: Growth inhibition of human HCT-116 cells measured after 48 hrs by SRB assay
[29] = tested on: 786-0; experiment: Growth inhibition of human 786-0 cells measured after 48 hrs by SRB assay
[30] = tested on: SK-MEL-28; experiment: Growth inhibition of human SK-MEL-28 cells measured after 48 hrs by SRB assay
[31] = tested on: UACC-257; experiment: Growth inhibition of human UACC-257 cells measured after 48 hrs by SRB assay
[32] = tested on: A498; experiment: Growth inhibition of human A498 cells measured after 48 hrs by SRB assay
[33] = tested on: UO-31; experiment: Growth inhibition of human UO-31 cells measured after 48 hrs by SRB assay
[34] = tested on: NCI-H522; experiment: Growth inhibition of human NCI-H522 cells measured after 48 hrs by SRB assay
[35] = tested on: U-251; experiment: Growth inhibition of human U-251 cells measured after 48 hrs by SRB assay
[36] = tested on: COLO 205; experiment: Growth inhibition of human COLO 205 cells measured after 48 hrs by SRB assay
[37] = tested on: TK-10; experiment: Growth inhibition of human TK-10 cells measured after 48 hrs by SRB assay
[38] = tested on: OVCAR-8; experiment: Growth inhibition of human OVCAR-8 cells measured after 48 hrs by SRB assay
[39] = tested on: OVCAR-3; experiment: Growth inhibition of human OVCAR-3 cells measured after 48 hrs by SRB assay
[40] = tested on: SK-OV-3; experiment: Growth inhibition of human SK-OV-3 cells measured after 48 hrs by SRB assay
[41] = tested on: SK-MEL-2; experiment: Growth inhibition of human SK-MEL-2 cells measured after 48 hrs by SRB assay
[42] = tested on: CAKI-1; experiment: Growth inhibition of human CAKI-1 cells measured after 48 hrs by SRB assay
[43] = tested on: CCRF-CEM; experiment: Growth inhibition of human CCRF-CEM cells measured after 48 hrs by SRB assay
[44] = tested on: SF-268; experiment: Growth inhibition of human SF-268 cells measured after 48 hrs by SRB assay
[45] = tested on: NCI-H226; experiment: Growth inhibition of human NCI-H226 cells measured after 48 hrs by SRB assay
[46] = tested on: RXF 393; experiment: Growth inhibition of human RXF 393 cells measured after 48 hrs by SRB assay
[47] = tested on: HT-29; experiment: Growth inhibition of human HT-29 cells measured after 48 hrs by SRB assay
[48] = tested on: IGROV-1; experiment: Growth inhibition of human IGROV-1 cells measured after 48 hrs by SRB assay
[49] = tested on: NCI-H322M; experiment: Growth inhibition of human NCI-H322M cells measured after 48 hrs by SRB assay
[50] = tested on: MCF7; experiment: Growth inhibition of human MCF7 cells measured after 48 hrs by SRB assay
[51] = tested on: SN12C; experiment: Growth inhibition of human SN12C cells measured after 48 hrs by SRB assay
[52] = tested on: SR; experiment: Growth inhibition of human SR cells measured after 48 hrs by SRB assay
[53] = tested on: SNB-19; experiment: Growth inhibition of human SNB-19 cells measured after 48 hrs by SRB assay
[54] = tested on: HCC 2998; experiment: Growth inhibition of human HCC 2998 cells measured after 48 hrs by SRB assay
[55] = tested on: A549; experiment: Growth inhibition of human A549 cells measured after 48 hrs by SRB assay
[56] = tested on: M14; experiment: Growth inhibition of human M14 cells measured after 48 hrs by SRB assay
[57] = tested on: T47D; experiment: Growth inhibition of human T47D cells measured after 48 hrs by SRB assay

CC(=O)OC[C@H]1O[C@@H](O[C@@H]2C=C3CC[C@@H]4[C@H]([C@@H](O)C[C@]5(C)[C@@H](c6ccc(=O)oc6)CC[C@]45O)[C@@]3(C)CC2)[C@H](OC(C)=O)[C@@H](OC(C)=O)[C@@H]1OC(C)=O
GI50 [1]: 283 nM
GI50 [2]: 129 nM
GI50 [3]: 642 nM
GI50 [4]: 286 nM
GI50 [5]: 105 nM
GI50 [6]: 290 nM
GI50 [7]: 95 nM
GI50 [8]: 597 nM
GI50 [9]: 91 nM
GI50 [10]: 114 nM
GI50 [11]: 56 nM
GI50 [12]: 314 nM
GI50 [13]: 302 nM
GI50 [14]: 181 nM
GI50 [15]: 88 nM
GI50 [16]: 105 nM
GI50 [17]: 381 nM
GI50 [18]: 812 nM
GI50 [19]: 93 nM
GI50 [20]: 155 nM
GI50 [21]: 140 nM
GI50 [22]: 65 nM
GI50 [23]: 247 nM
GI50 [24]: 77 nM
GI50 [25]: 225 nM
GI50 [26]: 386 nM
GI50 [27]: 109 nM
GI50 [28]: 75 nM
GI50 [29]: 102 nM
GI50 [30]: 273 nM
GI50 [31]: 376 nM
GI50 [32]: 64 nM
GI50 [33]: 92 nM
GI50 [34]: 70 nM
GI50 [35]: 295 nM
GI50 [36]: 629 nM
GI50 [37]: 128 nM
GI50 [38]: 246 nM
GI50 [39]: 92 nM
GI50 [40]: 322 nM
GI50 [41]: 362 nM
GI50 [42]: 98 nM
GI50 [43]: 110 nM
GI50 [44]: 109 nM
GI50 [45]: 264 nM
GI50 [46]: 41 nM
GI50 [47]: 321 nM
GI50 [48]: 111 nM
GI50 [49]: 114 nM
GI50 [50]: 103 nM
GI50 [51]: 65 nM
GI50 [52]: 285 nM
GI50 [53]: 421 nM
GI50 [54]: 677 nM
GI50 [55]: 75 nM
GI50 [56]: 416 nM
GI50 [57]: 338 nM
